Assay results: patent publication US20210387968A1, “HETEROARYLMETHYLENE DERIVATIVES AS DNA POLYMERASE THETA INHIBITORS” (IDEAYA Biosciences, Inc., priority 2019, published 2021)

Target: T1, Pol theta polymerase domain (residues 1819-2590) (Homo sapiens, UniProt O75417)
T1 construct: Pol theta polymerase domain (residues 1819-2590) at a final concentration of 4 nM
T1 sequence (O75417 1819-2590): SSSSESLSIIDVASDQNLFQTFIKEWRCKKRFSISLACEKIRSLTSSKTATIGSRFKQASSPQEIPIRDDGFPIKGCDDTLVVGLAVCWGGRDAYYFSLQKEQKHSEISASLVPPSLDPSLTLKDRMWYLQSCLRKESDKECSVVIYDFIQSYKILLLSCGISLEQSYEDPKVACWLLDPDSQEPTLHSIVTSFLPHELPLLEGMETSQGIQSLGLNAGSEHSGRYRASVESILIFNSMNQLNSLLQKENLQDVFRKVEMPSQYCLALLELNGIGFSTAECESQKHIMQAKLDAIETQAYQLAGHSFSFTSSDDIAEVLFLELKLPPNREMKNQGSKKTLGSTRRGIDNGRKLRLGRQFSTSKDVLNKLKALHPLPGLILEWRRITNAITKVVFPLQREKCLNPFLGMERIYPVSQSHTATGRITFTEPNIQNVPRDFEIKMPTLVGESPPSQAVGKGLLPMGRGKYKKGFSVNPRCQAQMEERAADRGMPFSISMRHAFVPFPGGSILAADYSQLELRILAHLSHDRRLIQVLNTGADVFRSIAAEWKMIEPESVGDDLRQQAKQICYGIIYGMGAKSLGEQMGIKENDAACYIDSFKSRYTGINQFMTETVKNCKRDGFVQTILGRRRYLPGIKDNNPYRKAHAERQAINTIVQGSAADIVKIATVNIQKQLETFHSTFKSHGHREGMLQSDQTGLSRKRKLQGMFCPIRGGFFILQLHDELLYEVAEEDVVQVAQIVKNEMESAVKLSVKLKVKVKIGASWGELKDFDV
Assay: Pol theta polymerase primer extension assay (molecular beacon fluorescence)
Assay type: biochemical
Settings: 4 nM enzyme, 15 min pre-incubation, fluorescence change over 30 min
Experimental: The ability of the compounds of Formula (I) to inhibit polymerase activity of Pol theta was determined using the assay described below.
A mixture of 20 uL of Pol theta polymerase domain (residues 1819-2590) at a final concentration of 4 nM in assay buffer (20 m M TRIS, pH 7.80, 50 mM KCl, 10 mM MgCl2, 1 mM DTT, 0.01% BSA, 0.01% Tween20) was added to test compounds (11-point dilution series of test compounds) except the low control wells without test compounds. The above enzyme and test compound inhibitor mixture was then incubated at room temperature for 15 min. An equal volume (20 μl) of dNTP substrate mix (48 μM) and primed molecular beacon DNA (obtained by annealing template SEQ ID NO 2: (5′-CCTTCCTCCCGTGTCTTG-TACCTTCCCGTCA-GGAGGAAGG-3′) with 5′-TAMRA and 3′-BHQ and primer DNA (SEQ ID NO 3: 5′-GACGGGAAGG-3′) in 10 mM Tris-HCl pH 8.0, 100 mM NaCl buffer) (96 nM) in assay buffer was added to all the test wells. The inhibition activity was measured by monitoring the fluorescence change over 30 min at 535 nm upon excitation at 485 nm. The high control (DMSO with enzyme) with high fluorescence intensity represents no inhibition of polymerase reaction while the low control (DMSO with buffer) with low fluorescence intensity represents full inhibition of polymerase activity. Slope of the reaction progress curves were used to calculate the rate of polymerization. The rates were used to determine the percent inhibition using a four-parameter inhibition model to generate IC50, Hill slope and max inhibition.

Which IC50 does the source give for `N#Cc1c(C(F)(F)F)cc(C(F)(F)F)nc1NCc1nncn1-c1ccc(F)cc1` [compound 12, 2-((4-(4-fluorophenyl)-4H-1,2,4-triazol-3-yl)methylamino)-4,6-bis(trifluoromethyl)-nicotinonitrile] here?
Its IC50 is < 200 nM.

For `Cc1ccc(-c2ccc(F)cc2)c(CNc2nc(C(F)(F)F)cc(C(F)(F)F)c2C#N)n1` [compound 20, 2-([[3-(4-fluorophenyl)-6-methylpyridin-2-yl]methyl]amino)-4,6-bis(trifluoromethyl)pyridine-3-carbonitrile], which IC50 is on record?
The IC50 was < 200 nM.

Which IC50 does the source give for `N#Cc1c(C(F)(F)F)cc(C(F)(F)F)nc1NCc1nccnc1-c1ccccn1` [compound 21, 2-(((3-(pyridin-2-yl)pyrazin-2-yl)methyl)amino)-4,6-bis(trifluoromethyl)-nicotinonitrile] here?
The IC50 was 200 to 500 nM.

`N#Cc1c(C(F)(F)F)cc(C(F)(F)F)nc1NCc1nc(O)ccc1-c1ccc(F)cc1` [compound 23, 2-([[3-(4-fluorophenyl)-6-oxo-1H-pyridin-2-yl]methyl]amino)-4,6-bis(trifluoro-methyl)pyridine-3-carbonitrile] was tested. Which IC50 did it give?
Its IC50 is < 200 nM.

Which IC50 does the source give for `N#Cc1ccc(-c2ccc(F)cc2)c(CNc2nc(C(F)(F)F)cc(C(F)(F)F)c2C#N)n1` [compound 24, 6-([[3-cyano-4,6-bis(trifluoromethyl)pyridin-2-yl]amino]methyl)-5-(4-fluorophenyl)pyridine-2-carbonitrile] here?
The IC50 was < 200 nM.

For `CC(Nc1nc(C(F)(F)F)cc(C(F)(F)F)c1C#N)c1nccn1-c1ccc(F)cc1` (stereo not drawn) [compound 13, 2-([1-[1-(4-fluorophenyl)imidazol-2-yl]ethyl]amino)-4,6-bis(trifluoromethyl)pyridine-3-carbonitrile], which IC50 is on record?
The IC50 was < 200 nM.

For “2-([[1-(4-fluorophenyl)-4- (trifluoromethyl)imidazol-2- yl]methyl]amino)-4,6- bis(trifluoromethyl)benzonitrile [compound 9]”, which IC50 is on record?
Its IC50 is < 200 nM.

With `N#Cc1c(C(F)(F)F)cc(C(F)(F)F)nc1NCc1n[nH]cc1-c1ccc(F)cc1` [compound 15, 2-(((4-(4-fluorophenyl)-1H-pyrazol-3-yl)methyl)amino)-4,6-bis(trifluoromethyl)-nicotinonitrile] as the compound, how does the IC50 read?
The IC50 was 1000 to 10000 nM.

How did the IC50 turn out when `Cc1nc(NCc2nccn2-c2ccccc2)c(C#N)c(C)c1Cl` [compound 2, 5-chloro-4,6-dimethyl-2-((1-phenyl-1H-imidazol-2-yl)methylamino)-nicotinonitrile] was run?
Its IC50 is < 200 nM.

Which IC50 does the source give for `N#Cc1c(C(F)(F)F)cc(C(F)(F)F)nc1NCc1ncccc1-c1ccc(F)cc1` [compound 16, 2-(((3-(4-fluorophenyl)pyridin-2-yl)methyl)amino)-4,6-bis(trifluoromethyl)-nicotinonitrile] here?
Its IC50 is < 200 nM.

How did the IC50 turn out when `N#Cc1c(C(F)(F)F)cc(C(F)(F)F)nc1NCc1ncccc1-c1ccc(Br)cc1` [compound 25, 2-([[3-(4-bromophenyl)pyridin-2-yl]methyl]amino)-4,6-bis(trifluoromethyl)-pyridine-3-carbonitrile] was run?
Its IC50 is < 200 nM.

How did the IC50 turn out when `COc1ccc(-n2ccnc2CNc2nc(C(F)(F)F)cc(C(F)(F)F)c2C#N)cc1` [compound 6, 2-([[1-(4-methoxyphenyl)-1H-imidazol-2-yl]methyl]amino)-4,6-bis(trifluoromethyl)-pyridine-3-carbonitrile] was run?
The IC50 was < 200 nM.

With `N#Cc1c(C(F)(F)F)cc(C(F)(F)F)nc1OCc1nccn1-c1ccc(F)cc1` [compound 8, 2-[[1-(4-fluorophenyl)-1H-imidazol-2-yl]methoxy]-4,6-bis(trifluoromethyl)-pyridine-3-carbonitrile] as the compound, how does the IC50 read?
Its IC50 is < 200 nM.

How did the IC50 turn out when `COc1ccc(-c2ccc(F)cc2)c(CNc2nc(C(F)(F)F)cc(C(F)(F)F)c2C#N)n1` [compound 27, 2-([[3-(4-fluorophenyl)-6-methoxypyridin-2-yl]methyl]amino)-4,6-bis(trifluoromethyl)pyridine-3-carbonitrile] was run?
The IC50 was 1000 to 10000 nM.

How did the IC50 turn out when `Cc1nc(NCc2nccn2-c2ccc(F)cc2)c(C#N)c(C)c1Cl` [compound 3, 5-chloro-2-(((1-(4-fluorophenyl)-1H-imidazol-2-yl)methyl)amino)-4,6-dimethyl-nicotinonitrile] was run?
The IC50 was < 200 nM.

How did the IC50 turn out when `N#Cc1c(C(F)(F)F)cc(C(F)(F)F)nc1NCc1nccnc1-c1ccc(F)cc1` [compound 10, 2-((3-(4-fluorophenyl)pyrazin-2-yl)methylamino)-4,6-bis(trifluoromethyl)-nicotinonitrile] was run?
The IC50 was < 200 nM.

For `N#Cc1c(C(F)(F)F)cc(C(F)(F)F)nc1NCc1ncnn1-c1ccc(F)cc1` [compound 26, 2-(((1-(4-fluorophenyl)-1H-1,2,4-triazol-5-yl)methyl)amino)-4,6-bis(trifluoro-methyl)nicotinonitrile], which IC50 is on record?
The IC50 was 200 to 500 nM.

`Fc1ccc(-n2ccnc2CNc2cc(Cl)cc(C(F)(F)F)c2)cc1` [compound 4, 3-chloro-N-((1-(4-fluorophenyl)-1H-imidazol-2-yl)methyl)-5-(trifluoromethyl)-benzenamine] was tested. Which IC50 did it give?
The IC50 was < 200 nM.

How did the IC50 turn out when `N#Cc1c(C(F)(F)F)cc(C(F)(F)F)nc1NCc1nccn1Cc1ccc(F)cc1` [compound 7, 2-[([1-[(4-fluorophenyl)methyl]-1H-imidazol-2-yl]methyl)amino]-4,6-bis-(trifluoromethyl)pyridine-3-carbonitrile] was run?
Its IC50 is < 200 nM.

How did the IC50 turn out when `N#Cc1c(C(F)(F)F)cc(C(F)(F)F)nc1NCc1ncccc1-c1ccccn1` [compound 22] was run?
The IC50 was < 200 nM.

With `N#Cc1c(C(F)(F)F)cc(C(F)(F)F)nc1NCc1nccn1-c1ccc(F)cc1` [compound 5, 2-([[1-(4-fluorophenyl)-1H-imidazol-2-yl]methyl]amino)-4,6-bis(trifluoromethyl)-pyridine-3-carbonitrile] as the compound, how does the IC50 read?
The IC50 was < 200 nM.

For `Cc1nc(OCc2nccn2-c2ccccc2)c(C#N)c(C)c1Cl` [compound 1, 5-chloro-4,6-dimethyl-2-((1-phenyl-1H-imidazol-2-yl)methoxy)-nicotinonitrile], which IC50 is on record?
The IC50 was 500 to 1000 nM.

Which IC50 does the source give for `N#Cc1c(C(F)(F)F)cc(C(F)(F)F)nc1NCc1nccnc1-c1ccc(F)cc1Cl` [compound 17, 2-([[3-(2-chloro-4-fluorophenyl)-pyrazin-2-yl]methyl]amino)-4,6-bis(trifluoromethyl)pyridine-3-carbonitrile] here?
Its IC50 is 500 to 1000 nM.

`Cn1cc(-c2ccc(F)cc2)c(CNc2nc(C(F)(F)F)cc(C(F)(F)F)c2C#N)n1` [compound 14, 2-(((4-(4-fluorophenyl)-1-methyl-1H-pyrazol-3-yl)methyl)amino)-4,6-bis(trifluoromethyl)nicotinonitrile] was tested. Which IC50 did it give?
Its IC50 is 1000 to 10000 nM.

How did the IC50 turn out when `N#Cc1c(C(F)(F)F)cc(C(F)(F)F)nc1NCc1ncncc1-c1ccc(F)cc1` [compound 11, 2-((5-(4-fluorophenyl)pyrimidin-4-yl)methylamino)-4,6-bis(trifluoromethyl)-nicotinonitrile] was run?
Its IC50 is < 200 nM.

With `N#Cc1c(C(F)(F)F)cc(C(F)(F)F)nc1OCc1ncccc1-c1ccc(F)cc1` [compound 19, 2-[[3-(4-fluorophenyl)pyridin-2-yl]methoxy]-4,6-bis(trifluoromethyl)pyridine-3-carbonitrile] as the compound, how does the IC50 read?
The IC50 was < 200 nM.

With `N#Cc1c(C(F)(F)F)cc(C(F)(F)F)nc1NCc1ncncc1-c1ccncc1` [compound 18, 2-([[5-(pyridin-4-yl)pyrimidin-4-yl]methyl]amino)-4,6-bis(trifluoro-methyl)pyridine-3-carbonitrile] as the compound, how does the IC50 read?
Its IC50 is 1000 to 10000 nM.
